Usually EC50 stands for the midpoint of the concentration-response curve. For orientation: EC99 means the point of the concentration-response curve where the effect stands at 99%.

Assay [1] has as its system Influenza A virus. The experiment in a line: Antiviral activity against Influenza A virus (A/Puerto Rico/8/34(H1N1)) harboring M2 channel S31N and V27T mutant infected in MDCK cells assessed as reduction of cytopathic effect after 72 hrs by microsocopic analysis. In kind it is functional, organism-based, A/Puerto Rico/8/1934(H1N1). (In general: Cytopathic effects are the visible damage that an infection or toxin causes in cultured cells.)

The subject of assay [2] is Influenza B virus. The experiment in a line: Antiviral activity against Influenza B virus (B/Hong Kong/05/1972) harboring wild type M2 channel infected in MDCK cells assessed as reduction of cytopathic effect after 72 hrs by MTS assay. In kind it is functional, cell-based. To be noted: B/Hong Kong/05/1972, MDCK.
The test system of assay [3] is Influenza B virus. The experiment in a line: Antiviral activity against Influenza B virus (B/Hong Kong/05/1972) harboring wild type M2 channel infected in MDCK cells assessed as reduction of cytopathic effect after 72 hrs by microsocopic analysis. The class given is functional, cell-based. Particulars: B/Hong Kong/05/1972, MDCK.
For assay [4], the system named is Influenza A virus. The experiment in a line: Antiviral activity against Influenza A virus (A/Puerto Rico/8/34(H1N1)) harboring M2 channel S31N and V27T mutant infected in MDCK cells assessed as reduction of cytopathic effect after 72 hrs by MTS assay. The class given is functional, organism-based, A/Puerto Rico/8/1934(H1N1).
Assay [5] has as its system H3N2 subtype. The experiment in a line: Antiviral activity against Influenza A virus (A/Hong Kong/7/1987(H3N2)) harboring wild type M2 channel infected in MDCK cells assessed as reduction of cytopathic effect after 72 hrs by microsocopic analysis. The class given is functional, organism-based.
Assay [6] concerns H3N2 subtype. The experiment in a line: Antiviral activity against Influenza A virus (A/Hong Kong/7/1987(H3N2)) harboring wild type M2 channel infected in MDCK cells assessed as reduction of cytopathic effect after 72 hrs by MTS assay. The class given is functional, organism-based.
Assay [7] relates to H3N2 subtype. In words: Antiviral activity against Influenza A virus (A/Hong Kong/7/1987(H3N2)) harboring wild type M2 channel infected in MDCK cells assessed as concentration required to 2 log10 reduction of virus yield after 24 hrs by RT-PCR analysis. In kind it is functional.

As to `CC12CC34CNCC3(C1)CC2(C)C4`, the EC50 in assay [1] is above 100 µM; in assay [2], above 100 µM; in assay [3], above 100 µM; in assay [4] it was above 100 µM; in assay [5], 1.6 µM; in assay [6] it was above 100 µM.
Regarding `CN1CC23CC4(C)CC2(C1)CC4(C)C3`, the EC50 in assay [1], in assay [2], in assay [3], in assay [4], in assay [5] and in assay [6] was above 100 µM in each case.
Regarding `CC12CC34CN(C(=N)N)CC3(C1)CC2(C)C4`, the EC50 in assay [1], in assay [2], in assay [3], in assay [4], in assay [5] and in assay [6] was above 100 µM throughout.
Take `C1NCC23CC4CC12CC4C3`: the EC50 in assay [1] was above 100 µM; in assay [2], above 100 µM; in assay [3], above 100 µM; in assay [4], above 100 µM; in assay [5], 7.9 µM; in assay [6], 7.2 µM.
In the case of `CN1CC23CC4CC2(CC4C3)C1`, the EC50 in assay [1], in assay [2], in assay [3], in assay [4], in assay [5] and in assay [6] was above 100 µM in each case.
For `N=C(N)N1CC23CC4CC2(CC4C3)C1`, the EC50 in assay [1], in assay [2], in assay [3], in assay [4], in assay [5] and in assay [6] was above 50 µM each time.
As for `CCC12CC34CNCC3(C1)CC2(CC)C4`, the EC50 in assay [1], in assay [2], in assay [3], in assay [4], in assay [5] and in assay [6] was above 100 µM in each case.
For `CCC12CC34CN(C(=N)N)CC3(C1)CC2(CC)C4`, the EC50 in assay [1], in assay [2], in assay [3], in assay [4], in assay [5] and in assay [6] was above 100 µM throughout.
Take `C1CCC23CC45CNCC4(CC2(C1)C5)C3`: the EC50 in assay [1], in assay [2], in assay [3], in assay [4], in assay [5] and in assay [6] was above 100 µM each time.
In the case of `N=C(N)N1CC23CC45CCCCC4(C2)CC3(C1)C5`, the EC50 in assay [1], in assay [2], in assay [3], in assay [4], in assay [5] and in assay [6] was above 100 µM throughout.
In the case of `NC12CC3CC(CC(C3)C1)C2` [AMANTADINE], the EC50 was 34 µM in assay [1]; above 500 µM in assay [2]; above 500 µM in assay [3]; 38 µM in assay [4]; 0.84 µM in assay [5]; 0.82 µM in assay [6].
As to `CC(N)C12CC3CC(CC(C3)C1)C2` (stereo not drawn) [RIMANTADINE], the EC50 in assay [1] was 18 µM; in assay [2] it was above 500 µM; in assay [3], above 500 µM; in assay [4], 4.3 µM; in assay [5], 0.62 µM; in assay [6], 0.12 µM. Besides, the EC99 in assay [7] was above 4 µM.

The record behind these values is ChEMBL document CHEMBL3085678, “3-Azatetracyclo[5.2.1.1(5,8).0(1,5)]undecane derivatives: from wild-type inhibitors of the M2 ion channel of influenza A virus to derivatives with potent activity against the V27A mutant” (J Med Chem, 2013).
